Test results published in PMC12040169 (PLOS Biology, 2025).

test: in vitro; conditions: human, hela cells, % viability

Compound	viability at 28.5 h, 10 µM [%]
C[C@@H]1CN(C(=O)OCCn2cccc2)C[C@H](C)O1 [CBK200123]	82.2
CCc1ccc(NC(=N)Nc2nc(CSc3ncccn3)cc(=O)[nH]2)cc1 [CBK268836]	88.1
CN(Cc1ncc[nH]1)C(=O)c1cn(Cc2cccc(C(F)(F)F)c2)nn1 [CBK306768]	84.4
CC1(CC(=O)N2CCCCCC2)SC(NC2CCCCCC2)=NC1=O (stereo not drawn) [CBK074269]	96
O=C(Oc1ccc(/C=N/Nc2nc(N3CCOCC3)nc(N3CCOCC3)n2)cc1)c1ccccc1 [CBK262064]	107
CCNC(=O)Nc1ncc(-c2cc(OC)c(OC)c(OC)c2)c2cccnc12 [CBK070635]	83.2
COc1ccc([C@@]23CC[C@@H](NC(=O)Nc4cccc(SC)c4)C[C@@H]2N(C)CC3)cc1OC [CBK036459T]	91.1
Cc1ccccc1C(NC(=O)C1CCN(C(=O)N(C)c2ccccc2)CC1)c1ccccn1 (stereo not drawn) [CBK059721]	88.7
CN(C)CCNCCOc1cccc([N+](=O)[O-])c1 [CBK267803C]	99.7
O=C(CN1CCC(c2ccccc2F)CC1)Nc1nccs1 [CBK283579]	106
CN1CCC(CNC(=O)Cn2ccc3ccc(F)cc32)(N(C)C)CC1 [CBK282569]	107
O=C(CN1CCOCC1)Nc1ccc(NC(=O)CN2CCOCC2)cc1 [CBK265045]	95.9
CC(CCN1CCN(CCO)CC1)c1ccccc1 (stereo not drawn) [CBK261876]	102
COc1cc(Nc2cc(-c3cccc(N)c3)ncn2)cc(OC)c1OC [CBK037713]	117
CN1CCN(c2cnn(CCCOc3ccccc3)c(=O)c2)CC1 [CBK307203]	100
CCCCC1CCC(C(=O)Nc2ncccn2)CC1 (stereo not drawn) [CBK027423]	113
CC1(C)CC(CCNC(=O)CCC(=O)O)(c2ccccc2)CCO1 (stereo not drawn) [CBK218198]	85.7
Cc1ccc(C2=CCN(CC(=O)NCc3ccco3)CC2)o1 [CBK283632]	107
Cc1cccc(C(N)=O)c1O [CBK012294]	112
O=C1NC(=O)C(CCCCN2CCCC3(CCN(C(=O)Cc4c[nH]c5ccccc45)C3)C2)N1 (stereo not drawn) [CBK132059]	83.8
COc1cccc(CCNC(=O)NC(=O)C2CCN(S(C)(=O)=O)CC2)c1 [CBK034860]	99
CCCC(=O)N1CCC(c2nc3ccccn3c2NC(C)(C)C)CC1 [CBK284744]	81.9

Compound	viability at 28.5 h, 10 µM [%]
C/C(C(=O)O)=C(/C)C(=O)N1CCC2(C1)NCCc1c2[nH]c2ccccc12 (stereo not drawn) [CBK046995]	100
C=CCn1cc(CN2CCC(O)(c3ccccc3C)CC2)c(C)n1 [CBK282581]	86.5
Cc1nc2ccccc2c(C)c1CC(=O)N(C)Cc1cnn(C)c1 [CBK304895]	96.1
COc1ccc(CN2CCC(Oc3nccnc3OCCN3CCOCC3)CC2)cc1 [CBK082922T]	90.8
O=C(O)/C=C/C(=O)Nc1ccc(S(=O)(=O)NCc2ccco2)cc1 [CBK264500]	106
Cn1ncc2c1CCCN(C(=O)COc1ccc(F)cc1F)C2 [CBK285229]	90.6
COC(=O)c1ccc(CN2CCCC2)cc1 [CBK029023]	106
O=C1C2C3C=CC(C3)C2C(=O)N1CCN1CCNCC1 (stereo not drawn) [CBK278185C]	92.3
O=C(NCCc1c[nH]c2ccc(Cl)cc12)c1ccoc1 [CBK159782]	97.9
CSc1ccc(-n2ncc(-c3ccc(F)cc3F)n2)cc1 [CBK112728]	91.3
CC(C)c1ccc(S(=O)(=O)Nc2ccc(OC(F)F)cc2)cc1 [CBK044565]	87.8
CN1CCN(c2nc(-c3ccc4c(c3)CCCC(=O)N4)cs2)CC1 [CBK305600]	98.6
CCOC(=O)C1(C2CCCCC2)CCN(C(=O)C(c2ccccc2)c2ccccc2)CC1 [CBK136943]	106
COC[C@@H]1CCCN1S(=O)(=O)c1cccs1 [CBK045239]	96
CC(O)CNCc1ccccc1OCc1ccccc1F (stereo not drawn) [CBK270278C]	93.2
CC(C)Oc1cccc(C(=O)Nc2ccc(N3CCN(C)CC3)cc2)c1 [CBK266090]	90.5
CC(=O)N/C(=C/c1ccc([N+](=O)[O-])cc1)C(=O)Nc1cccc(C(=O)O)c1 [CBK264495]	94.8
O=C(O)CNS(=O)(=O)c1cccc2cccnc12 [CBK034462]	85.9
COC(=O)c1ccc(NC(=O)c2ccc(-n3cccn3)cc2)cc1 [CBK269486]	90.7
CN1CCCN(c2cnn(Cc3ccc(Cl)s3)c(=O)c2)CC1 [CBK307123]	90.8
O=C(NC1CCCC1)c1ccc2c(c1)C(=O)N(CC1CCCO1)C2=O (stereo not drawn) [CBK269777]	103
COC(=O)c1sc2ncccc2c1NS(=O)(=O)Cc1ccccc1[N+](=O)[O-] [CBK049974]	102

Compound	viability at 28.5 h, 10 µM [%]
Cc1nc2c(C(=O)NCC3OCCO3)cnn2c(C)c1Cc1ccc(Br)cc1 [CBK167467]	99.8
CC(=O)Nc1ccc(-c2cc(Nc3cccc(N(C)C)c3)ncn2)cc1 [CBK091017]	83.7
COC(=O)c1nn(-c2ccccc2)c2cc([N+](=O)[O-])ccc12 [CBK115321]	99.3
O=C(CCn1c(C(F)F)cc2cccnc21)N1CCOCC1 [CBK284956]	101
COC(=O)[C@@H]1CN(C(=O)c2cccs2)CCN1C(=O)c1cccnc1 [CBK289610]	87
O=C(O)c1cccc2c1C(=O)N(Cc1ccc(F)cc1)C2 [CBK291183]	87.3
CCCc1ccc(S(=O)(=O)n2ccn(-c3ccc4c(c3)OCO4)c2=O)cc1 [CBK106634]	94.6
O=S(=O)(NCCc1ccncc1)c1ccc(Cl)c(Cl)c1 [CBK044438]	97.9
CC(C)C(=O)NC1CCN(C(=O)CCn2ccc3ccncc32)CC1 [CBK284730]	98
CCC1=C(c2ccc(Cl)cc2)CCC(C(=O)NCCCN(C)C)C1C (stereo not drawn) [CBK012578]	74.1
CC(=O)c1ccc(NC(=O)N[C@H]2CCN3C(=O)[C@H]4CCCN4C(=O)[C@H]23)cc1 [CBK289228]	108
CC(C)C(=O)N1CC2(CCN(Cc3ccc(Cl)c(Cl)c3)CC2)c2ccccc21 [CBK126715]	94.7
Nc1nc2c([nH]c(=O)n2[C@H]2C[C@@H](O)[C@@H](CO)O2)c(=O)[nH]1 [CBK201269]	94.7
CC(CNC(=O)C1CCCC1)N1CCc2ccccc2C1 (stereo not drawn) [CBK304555]	94.2
CCN(CC(C)C#N)C(=O)c1ccc2ccccc2n1 (stereo not drawn) [CBK304801]	96.6
CC(Oc1ccccc1)C(=O)Nc1cccc(-c2nnc(-c3ccccc3)o2)c1 (stereo not drawn) [CBK262822]	91.2
CCCCC(=O)N1CC(n2nc(-c3ccccc3)ccc2=O)C1 [CBK284615]	95.6
Cc1ccc(C)c(NC(=O)CN(Cc2ccc(Cl)c(Cl)c2)S(=O)(=O)c2ccccc2)c1 [CBK264191]	107
Cc1nc(CCNCc2c(C)nn(C)c2N2CCOCC2)cs1 [CBK304054]	101
Cn1cc(CNCc2ccc(N3CCCC3)nc2)c(-c2cccnc2)n1 [CBK306312]	105
O=c1[nH]nc2cc(SCc3ccc(Cl)cc3)ncn12 [CBK300540]	107
O=C1NCCCC12CCN(Cc1ccc(F)cc1)CC2 [CBK285345]	83.1

Compound	viability at 28.5 h, 10 µM [%]
COc1ccccc1N1CCN(/N=C\c2ccccc2OCC(=O)O)CC1 [CBK263173C]	93.5
Brc1cn2ccnc2c(N2CCCC2)n1 [CBK085449]	117
O=C(CCN1C(=O)[C@@H]2Cc3ccccc3CN2C1=O)N[C@H](C(=O)O)c1ccccc1 [CBK286751]	88.7
COc1ccc(CSc2nc(O)cc(C(F)(F)F)n2)cc1 [CBK001217]	85
Cn1cccc1C(=O)N[C@H]1C[C@H]2C(=O)Nc3ccc(/C=C/c4ccccc4)cc3C(=O)N2C1 [CBK289367]	86.7
CC(C)(C)NC(=O)NCC(c1ccc[nH]1)C(F)(F)F (stereo not drawn) [CBK021595]	92.3
COc1cccc(CN2CCN(C(=O)C3(C)CC3(Cl)Cl)CC2)c1 (stereo not drawn) [CBK268121]	96.7
COc1cc(CN2CCN(S(=O)(=O)c3ccc(F)cc3)CC2)cc(OC)c1O [CBK264269G]	103
COC(=O)[C@@H]1CN(C(=O)c2cccs2)C[C@H]1c1ccc(OC)cc1 [CBK283725]	87.1
O=C(NC(=O)C1CCN(CCc2ccc3c(c2)CCO3)CC1)Nc1ccccc1Cl [CBK035147]	84.3
CCOC(=O)c1cccc(NS(=O)(=O)c2cc(F)c(Br)cc2F)c1 [CBK034333]	89.2
COc1ccc(C)cc1C1(CNC(=O)C2CCC(N)C2)CCOCC1 (stereo not drawn) [CBK304312C]	107
Nc1nc2c([C@H]3C[C@@H](O)[C@@H](CO)O3)c[nH]c2c(=O)[nH]1 [CBK201194]	102
Oc1ccc(-c2oncc2-c2ccccc2)c(O)c1 [CBK288228]	96.2
Cc1noc(C)c1C(=O)N1CCN(c2ccccc2)CC1 [CBK200165]	97.8
Cc1nnc([C@H]2CCN(Cc3ccccc3)C2)o1 [CBK289390]	114
O=C1CCCN1c1ccc(S(=O)(=O)N(c2ccccc2)C2CCNCC2)cc1 [CBK165122T]	109
CC(NCC(O)c1ccco1)c1ccc(C#N)s1 (stereo not drawn) [CBK304265]	85.9
O=C(CSc1ccc(Br)cc1)NCc1ccco1 [CBK269701]	86.5
Cc1ccc2[nH]cc(CCN3CCC4(C3)OCCc3c4[nH]c4ccccc34)c2c1 (stereo not drawn) [CBK061790]	84.7
COCC(=O)NC1CCN(CC2(c3ccc(C)cc3)CC2)CC1 [CBK285350]	104
OCCNC(=S)Nc1ccc(Cl)cc1Cl [CBK265330]	106

same assay, conditions: human, hela cells, % viability, bulk resorufin, single well

Compound	viability at 28.5 h, 10 µM [%]
CCNC(=S)N1CCN(CCNC=C2C(=O)NC(=O)NC2=O)CC1 [CBK265228]	111
CCOC(=O)C1(c2ccccc2)CCN(C(=O)CC2NC(=O)NC2=O)CC1 (stereo not drawn) [CBK132196]	93.7
